Laboratory results reported in PubChem BioAssay (NCI).
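Test compounds were applied to cells in 96-well plates for 48 hours at 5 doses. GI50 is the concentration that inhibits growth by half. TGI: total growth inhibition.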

Legend:
Assay in all cases: NCI tumour cell line growth inhibition, 48 h
[1] = test system: LOX IMVI melanoma
[2] = test system: OVCAR-5 ovarian
[3] = test system: MCF7 breast
[4] = test system: SN12C renal
[5] = test system: HOP-92 NSCLC
[6] = test system: IGROV1 ovarian
[7] = test system: SNB-19 CNS
[8] = test system: HOP-62 NSCLC
[9] = test system: HCC-2998 colon
[10] = test system: OVCAR-3 ovarian
[11] = test system: ACHN renal
[12] = test system: DU-145 prostate
[13] = test system: SR leukemia
[14] = test system: OVCAR-4 ovarian
[15] = test system: NCI/ADR-RES ovarian
[16] = test system: SK-MEL-28 melanoma
[17] = test system: UO-31 renal
[18] = test system: NCI-H226 lung
[19] = test system: MOLT-4 leukemia
[20] = test system: HCT-116 colon
[21] = test system: RPMI-8226 leukemia
[22] = test system: SK-MEL-2 melanoma
[23] = test system: OVCAR-8 ovarian
[24] = test system: SF-268 CNS
[25] = test system: HL-60(TB) leukemia
[26] = test system: HCT-15 colon
[27] = test system: COLO 205 colon
[28] = test system: UACC-257 melanoma
[29] = test system: PC-3 prostate

Question: With `Cn1c(-c2ccncc2)c(-c2ccc(F)cc2)c2ncccc21` as the molecule, how does the GI50 [1] read?
Answer: > 25 µM

Question: What about the TGI [1] of the same molecule?
Answer: > 25 µM

Question: And the GI50 [2]?
Answer: > 25 µM

Question: And the TGI [2]?
Answer: > 25 µM

Question: What about the GI50 [3] of the same molecule?
Answer: > 25 µM

Question: What about the TGI [3] of the same molecule?
Answer: > 25 µM

Question: What about the GI50 [4] of the same molecule?
Answer: > 25 µM

Question: What about the TGI [4] of the same molecule?
Answer: > 25 µM

Question: And the GI50 [5]?
Answer: 7.39 µM

Question: What about the TGI [5] of the same molecule?
Answer: > 25 µM

Question: What about the GI50 [6] of the same molecule?
Answer: > 23.1 µM

Question: What about the TGI [6] of the same molecule?
Answer: > 25 µM

Question: What about the GI50 [7] of the same molecule?
Answer: > 25 µM

Question: What about the TGI [7] of the same molecule?
Answer: > 25 µM

Question: What about the GI50 [8] of the same molecule?
Answer: > 25 µM

Question: And the TGI [8]?
Answer: > 25 µM

Question: What about the GI50 [9] of the same molecule?
Answer: > 25 µM

Question: And the TGI [9]?
Answer: > 25 µM

Question: What about the GI50 [10] of the same molecule?
Answer: > 25 µM

Question: And the TGI [10]?
Answer: > 25 µM

Question: What about the GI50 [11] of the same molecule?
Answer: 16.4 µM

Question: What about the TGI [11] of the same molecule?
Answer: > 25 µM

Question: What about the GI50 [12] of the same molecule?
Answer: > 25 µM

Question: What about the TGI [12] of the same molecule?
Answer: > 25 µM

Question: What about the GI50 [13] of the same molecule?
Answer: > 25 µM

Question: What about the TGI [13] of the same molecule?
Answer: > 25 µM

Question: What about the GI50 [14] of the same molecule?
Answer: > 25 µM

Question: And the TGI [14]?
Answer: > 25 µM

Question: And the GI50 [15]?
Answer: > 25 µM

Question: What about the TGI [15] of the same molecule?
Answer: > 25 µM

Question: And the GI50 [16]?
Answer: > 25 µM

Question: What about the TGI [16] of the same molecule?
Answer: > 25 µM

Question: What about the GI50 [17] of the same molecule?
Answer: 10.8 µM

Question: And the TGI [17]?
Answer: > 25 µM

Question: What about the GI50 [18] of the same molecule?
Answer: > 25 µM

Question: And the TGI [18]?
Answer: > 25 µM

Question: And the GI50 [19]?
Answer: > 25 µM

Question: And the TGI [19]?
Answer: > 25 µM

Question: What about the GI50 [20] of the same molecule?
Answer: > 25 µM

Question: What about the TGI [20] of the same molecule?
Answer: > 25 µM

Question: What about the GI50 [21] of the same molecule?
Answer: > 25 µM

Question: What about the TGI [21] of the same molecule?
Answer: > 25 µM

Question: What about the GI50 [22] of the same molecule?
Answer: > 25 µM

Question: What about the TGI [22] of the same molecule?
Answer: > 25 µM

Question: And the GI50 [23]?
Answer: > 25 µM

Question: And the TGI [23]?
Answer: > 25 µM

Question: What about the GI50 [24] of the same molecule?
Answer: > 25 µM

Question: And the TGI [24]?
Answer: > 25 µM

Question: What about the GI50 [25] of the same molecule?
Answer: > 25 µM

Question: What about the TGI [25] of the same molecule?
Answer: > 25 µM

Question: What about the GI50 [26] of the same molecule?
Answer: > 25 µM

Question: What about the TGI [26] of the same molecule?
Answer: > 25 µM

Question: What about the GI50 [27] of the same molecule?
Answer: > 25 µM

Question: And the TGI [27]?
Answer: > 25 µM

Question: And the GI50 [28]?
Answer: > 25 µM

Question: And the TGI [28]?
Answer: > 25 µM

Question: And the GI50 [29]?
Answer: > 25 µM
